Consider four compounds from US6849659B2, “Pharmaceutical composition containing citalopram” (H. Lundbeck A/S, priority 2000, dated 2005).

SMILES strings stand for the structures. Counter-ions that a name gives are not always drawn.

This data set in a line: Particle size distribution (Sympatec Helos laser diffraction). In kind it is physicochemical. To be noted: for Particle size distribution, quantile 5% / Particle size distribution, quantile 10% / Particle size distribution, quantile 50% (median particle size) / Particle size distribution, quantile 90% / Particle size distribution, quantile 95%: Sympatec Helos.

Source text: As used herein, “particle size distribution” means the distribution of equivalent spherical diameters as determined by laser diffraction at 1 bar dispersive pressure in a Sympatec Helos equipment. “Median particle size”, correspondingly, means the median of said particle size distribution.

`CN(C)CCCC1(c2ccc(F)cc2)OCc2cc(C#N)ccc21` (stereo not shown) [citalopram hydrobromide, reference compound]: the Particle size (product of the process used for the preparation of citalopram hydrobromide (background)) was 2-20 μm.

On to `Br.CN(C)CCCC1(c2ccc(F)cc2)OCc2cc(C#N)ccc21` (single isomer, unassigned) [Example 3, Citalopram hydrobromide], for which the “Particle size distribution, quantile 5%” value is given as 0.82 μm; the “Particle size distribution, quantile 10%” value is listed as 1.19 μm; the “Particle size distribution, quantile 50% (median particle size)” value was found to be 14.04 μm; the “Particle size distribution, quantile 90%” value is listed as 72.27 μm. Also, the “Particle size distribution, quantile 95%” value worked out at 96.96 μm.

As to `Br.CN(C)CCCC1(c2ccc(F)cc2)OCc2cc(C#N)ccc21` (single isomer, unassigned) [Example 2, Citalopram hydrobromide], the “Particle size distribution, quantile 5%” value was 6.67 μm; the “Particle size distribution, quantile 10%” value is reported as 11.97 μm; the “Particle size distribution, quantile 50% (median particle size)” value is given as 52.70 μm; the “Particle size distribution, quantile 90%” value came out at 352.23 μm. Moreover, the “Particle size distribution, quantile 95%” value is reported as 549.42 μm.

As for `Br.CN(C)CCCC1(c2ccc(F)cc2)OCc2cc(C#N)ccc21` (single isomer, unassigned) [Example 1, Citalopram hydrobromide], the “Particle size distribution, quantile 5%” value is given as 8.23 μm; the “Particle size distribution, quantile 10%” value turned out to be 16.54 μm; the “Particle size distribution, quantile 50% (median particle size)” value was found to be 96.87 μm; the “Particle size distribution, quantile 90%” value was 342.89 μm. Also, the “Particle size distribution, quantile 95%” value was 465.43 μm.
